Experimental data: patent publication US6646006B2, “Enhancement of vascular function by modulation of endogenous nitric oxide production or activity” (The Board of Trustees of the Leland Stanford Junior …, priority 1993, dated 2003)
Entries after “also recorded” stand apart in the source; their conditions may differ.

How the values were obtained:
[1] = tested on: coronary arteries; assay: Coronary response to intracoronary acetylcholine after intravenous L-arginine in cardiac transplant recipients; assay type: in vivo, human
Procedure: Cardiac transplant recipients scheduled for elective annual coronary angiography at Stanford University hospital were screened for possible participation in the study. The study protocol was approved by the Stanford University Committee on Human Subjects in Medical Research. All patients gave written informed consent. Eighteen patients who had cardiac transplantation 1 to 13 years previously were studied.
Vasoactive medications were discontinued at least 12 hours before the study. […] An infusion catheter was then advanced over a Doppler flow velocity guide wire into a nonbranching segment of the coronary artery for infusion of acetylcholine (which stimulates the endothelium to release NO). After baseline angiography was performed, increasing concentrations of acetylcholine were serially infused over 3 minutes. Infusion of acetylcholine continued until the maximum dose (10^−4 mol/L) was reached or until total coronary occlusion occurred. Then an intravenous infusion of L-arginine (30 g over 15 minutes) was performed. Thereafter, the intracoronary infusion of acetylcholine was repeated. Coronary angiography and Doppler flow velocity recording was performed at the end of the L-arginine infusion and after the infusion of each concentration of acetylcholine.

[2] = tested on: rabbit aortic endothelium; assay: Ex vivo binding of WEHI 78/24 monocytoid cells to rabbit aortic endothelium; assay type: in vivo; details: two weeks, L-arginine supplementation
Description: Methods. Animals. Male New Zealand White rabbits were pair fed, receiving one of the following dietary interventions for two weeks: normal rabbit chow (Cont, n=7); rabbit chow enriched with 1% cholesterol (Chol, n=7); or 1% cholesterol chow supplemented with 2.25% L-arginine HCl in the drinking water (Arg, n=7) ad libitum throughout the course of the study. […] One day before sacrifice (after 2 weeks of dietary intervention), animals were lightly sedated and the central ear artery was cannulated for collection of blood samples.
Mononuclear cell culture and isolation. Murine monocytoid cells, WEHI 78/24 cells were grown in Dulbecco's Modified Eagle's Medium supplemented 10% fetal calf serum (vol/vol) and were kept in an atmosphere of 5% CO2/95% air. Prior to binding studies, mononuclear cells were fluorescently labeled with TRITC (3 μg/ml). To confirm the results using WEHI cells, in some studies binding studies were performed in parallel using rabbit mononuclear cells. Mononuclear cells were isolated from fresh whole blood of Control rabbits before sacrifice.
Preparation of aortic endothelium and binding assay. […]
After 10 minutes the HBSS medium was replaced by binding medium containing WEHI cells. […] The aortic segments were then removed and placed on a glass slide, and adherent cells counted under epifluorescent microscopy from at least 30 sites on each segment.

[3] = tested on: hypercholesterolemic rabbits; assay: Balloon angioplasty of the iliac artery in hypercholesterolemic rabbits, oral arginine; assay type: in vivo, rabbit
Description: Methods. Twenty-eight New Zealand white rabbits were randomized into one of three dietary groups and received either normal rabbit chow, 0.5% cholesterol diet, or 0.5% cholesterol diet plus L-arginine hydrochloride (2.25% W/V) in the drinking water. After six weeks of dietary intervention, left iliac artery of each animal was subjected to a balloon angioplasty. Four weeks later, the iliac arteries were harvested for vascular reactivity studies and immunohistochemistry.

[4] = tested on: MCP-1; assay: Northern analysis of MCP-1 expression in thoracic aortae; assay type: in vivo, rabbit; details: two weeks; L-NA on normal chow, Arg on high cholesterol diet
Description: To investigate the role of endogenous NO in the regulation of MCP-1 in vivo, NZW rabbits were fed normal chow, normal chow plus nitro-L-arginine (L-NA) (to inhibit vascular NO synthesis), high cholesterol diet (Chol), or high cholesterol diet supplemented with L-arginine (Arg) (to enhance NO synthesis). After two weeks, thoracic aortae were harvested and total RNA was isolated. […] These studies indicate that the anti-atherogenic effect of NO may be mediated in part by its inhibition of MCP-1 expression. NO inhibits the generation of superoxide anion by the vascular cells and thereby turns off an oxidant-responsive transcriptional pathway (i.e. NFκB-mediated transcription) activating MCP-1 expression.

[5] = tested on: hypercholesterolemic rabbits; assay: Regression of pre-existing atherosclerosis in hypercholesterolemic rabbits; assay type: in vivo, rabbit; details: for Lesion surface area of thoracic aortae: all arginine treated animals weeks 14-23 vs vehicle
Description: This is clinically important if arginine is to be useful in the treatment of pre-existing atherosclerosis in humans. Accordingly, New Zealand white rabbits (n=85) received normal chow or 0.5% cholesterol chow for 10 weeks. Subsequently, half of the hypercholesterolemic rabbits were given 2.25% (W/V) L-arginine in their drinking water. Thoracic aortae were harvested at weeks 10, 14, 18, or 23. Rings of aorta were used to assess NO-dependent vasodilation to acetylcholine (ACh). Maximal relaxation to ACh in the hypercholesterolemic rabbits receiving vehicle (CHOL) became progressively attenuated from 53.4% (at week 10) to 17.4% (by week 23). […] By contrast, hypercholesterolemic animals receiving arginine (ARG) manifested improved endothelium-dependent relaxation associated with a reduction of plaque area at 14 and 18 weeks.

[6] = tested on: hypercholesterolemic rabbits; assay: Oral arginine in cholesterol-fed rabbits: biochemical and physiological measurements; assay type: in vivo, rabbit; details: 1% cholesterol diet + 2.25% L-arginine HCl in drinking water, vs Control or Chol diet
Description: Study design: (See, Cooke et al., 1992, supra) Male New Zealand white rabbits (n=49) were assigned to one of three treatment groups: 10 were fed with normal rabbit chow for ten weeks (Control); 19 received chow enriched with 1% cholesterol (Chol); and 20 received a 1% cholesterol diet supplemented with 2.25% L-arginine hydrochloride in the drinking water (Arg.). […] Subsequently the animals were sacrificed and the left main coronary artery and the thoracic aorta were harvested for studies of vascular reactivity and histomorphometry. In some animals, blood was collected for studies of platelet and monocyte reactivity.
Results: Biochemical and physiological measurements. […] Serum cholesterol measurements were elevated equally in both groups receiving the 1% cholesterol diet [50±6 vs. 1629±422 vs. 1852±356 mg/dl respectively for Control (=10), Chol (=13), and Arg (=14)].

N=C(N)NCCC[C@H](N)C(=O)O [L-arginine]
complications or side-effects of the infusion ([1]; 30 g i.v. over 15 minutes): no complications or side-effects | Epicardial coronary vasoconstriction caused by acetylcholine ([1]; acetylcholine 10^−4 mol/L, after L-arginine 30 g i.v. over 15 minutes): −2.8% | increase in coronary blood flow to acetylcholine ([1]; after L-arginine 30 g i.v.): significantly enhanced; also recorded: improved | increased WEHI cell binding to aortic endothelium of hypercholesterolemic animals [2]: significantly attenuated | intimal thickening in injured vessels ([3]; four weeks after balloon angioplasty): reduced | accumulation of macrophages in the lesion ([3]; four weeks after balloon injury, ARG vs CHOL): substantially inhibited; also recorded: significantly reduced | endothelium-derived NO activity (bioassay) ([3]; iliac artery, hypercholesterolemic animals): partially restored | expression of MCP-1 in aortae [4]: decreased | plaque area of total surface of thoracic aorta ([5]; 23 weeks, 3 of 7 ARG animals with persistent improvement): 5.4% | generation of vascular NO ([5]; ARG animals): increased generation | generation of vascular superoxide anion ([5]; ARG animals): reduced generation | plaque area ([5]; ARG animals at 14 and 18 weeks): reduction | endothelium-dependent relaxation ([5]; ARG animals, 14 and 18 weeks): improved | Lesion surface area of thoracic aortae [5]: significantly reduced | Lesion surface area of thoracic aortae ([5]; listed as arginine): reduced | plasma arginine levels [6]: twofold elevation
